The text below walks through data of patent US20160244390A1, “Etherified Tri-Butylphenol Alkoxylates, Process For Their Preparation And Their Use In Crop Protection Agents” (CLARIANT INTERNATIONAL LTD, priority 2013, published 2016).

Data set [1] can be described thus: Dynamic surface tension by the bubble pressure method (wetting agent effect). The note with it: for Dynamic surface tension: 22° C. The class given is physicochemical. The protocol:
The dynamic surface tension was determined by the bubble pressure method (BP2100 tensiometer, Krúss) on a timescale relevant for spray application. The dynamic surface tension was measured for solutions of TBPEM-6 and TBPEM-8 in mains water at room temperature (22° C.) and at the typical spray mixture concentrations of 0.3, 1, and 3 g/l.

A further data set concerns apple cuticles. In words: Percentage penetration of benzyladenine through apple cuticles with and without TBPEM-6. The class given is in vitro ADME. The settings on record: 0.2 g/l benzyladenine in acetone/mains water, no additive. The protocol: The method described in the literature (Baur et al., 1997, Pesticide Science 51, 131-152) can be used for determining these properties.
The penetration of the growth promoter benzyladenine (benzylamonopurin) through leaf cuticles was measured at an active ingredient concentration of 0.2 g/l benzyladenine in acetone/mains water, with and without TBPEM-6, at different practically relevant concentrations, 5 hours and 24 hours after application.

In the case of “2,4,6-tributylphenoxy-ethoxy(6) methyl ether [TBPEM-6]”, the Dynamic surface tension came to 70.3 mN/m in data set [1] (0.3 g/L in mains water, 20 ms); 65.0 mN/m in data set [1] (0.3 g/L in mains water, 100 ms); 62.8 mN/m in data set [1] (0.3 g/L in mains water, 200 ms); 62.9 mN/m in data set [1] (1 g/L in mains water, 20 ms); 54.1 mN/m in data set [1] (1 g/L in mains water, 100 ms); 52.5 mN/m in data set [1] (1 g/L in mains water, 200 ms). The Dynamic surface tension in data set [1] (3 g/L in mains water, 20 ms) is 55.5 mN/m; in data set [1] (3 g/L in mains water, 100 ms) it was 42.9 mN/m; in data set [1] (3 g/L in mains water, 200 ms) it was 41.8 mN/m. In data set [1] (spray application timescale), the “Suitability as wetting agent from dynamic surface tension” value is recorded as “excellent suitability as a rapid wetting agent”.

As for “tributylphenol ethoxylate(6) [Sapogenat T 060]”, the Dynamic surface tension is on record as 69.9 mN/m in data set [1] (0.3 g/L in mains water, 20 ms); 64.6 mN/m in data set [1] (0.3 g/L in mains water, 100 ms); 61.4 mN/m in data set [1] (0.3 g/L in mains water, 200 ms); 67.3 mN/m in data set [1] (1 g/L in mains water, 20 ms); 58.6 mN/m in data set [1] (1 g/L in mains water, 100 ms); 53.2 mN/m in data set [1] (1 g/L in mains water, 200 ms). The Dynamic surface tension in data set [1] (3 g/L in mains water, 20 ms) turned out to be 63.4 mN/m; in data set [1] (3 g/L in mains water, 100 ms), 51.8 mN/m; in data set [1] (3 g/L in mains water, 200 ms), 46 mN/m.

Regarding `c1ccc(CNc2ncnc3nc[nH]c23)cc1` [Benzyladenine, benzyladenine], the results for the “Percentage penetration of benzyladenine” value in the data set with apple cuticles (5 h) and in the data set on apple cuticles (24 h) were 2.0% and 3.7%, respectively.
